Test results reported in PubChem BioAssay AID248 (DTP/NCI, 2004).
Where “and” joins values, the source holds several entries; their conditions need not be identical. Equal values may be shown once. Inconclusive results and toxic doses are left out.

Tested on: L1210 leukemia ip in BDF1 mice, survival T/C
Assay: NCI In Vivo Anticancer Drug Screen. Data for tumor model L1210 Leukemia (intraperitoneal) in B6D2F1 (BDF1) mice
Settings: endpoint: mean survival time, higher = longer survival
How it was run: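 Value reflects the ratio of survival in compound-treated mice to survival in vehicle-treated controls, with both groups carrying the same transplanted tumor.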

[1] = dose: 50.0 mg/kg/injection, schedule: Q01DX001 (ip), vehicle: carboxymethylcellulose (CMC)
[2] = dose: 100.0 mg/kg/injection, schedule: Q01DX001 (ip), vehicle: carboxymethylcellulose (CMC)
[3] = dose: 200.0 mg/kg/injection, schedule: Q01DX001 (ip), vehicle: carboxymethylcellulose (CMC)
[4] = dose: 400.0 mg/kg/injection, schedule: Q01DX001 (ip), vehicle: carboxymethylcellulose (CMC)
[5] = dose: 100.0 mg/kg/injection, schedule: Q04DX003 (ip), vehicle: saline with Tween-80
[6] = dose: 200.0 mg/kg/injection, schedule: Q04DX003 (ip), vehicle: saline with Tween-80
[7] = dose: 400.0 mg/kg/injection, schedule: Q04DX003 (ip), vehicle: saline with Tween-80
[8] = dose: 100.0 mg/kg/injection, schedule: Q01DX001 (ip), vehicle: Klucel (hydroxypropylcellulose) (HPC)
[9] = dose: 200.0 mg/kg/injection, schedule: Q01DX001 (ip), vehicle: Klucel (hydroxypropylcellulose) (HPC)
[10] = dose: 400.0 mg/kg/injection, schedule: Q01DX001 (ip), vehicle: Klucel (hydroxypropylcellulose) (HPC)
[11] = dose: 100.0 mg/kg/injection, schedule: Q04DX003 (ip), vehicle: Klucel (hydroxypropylcellulose) (HPC)
[12] = dose: 200.0 mg/kg/injection, schedule: Q04DX003 (ip), vehicle: Klucel (hydroxypropylcellulose) (HPC)
[13] = dose: 400.0 mg/kg/injection, schedule: Q04DX003 (ip), vehicle: Klucel (hydroxypropylcellulose) (HPC)
[14] = dose: 50.0 mg/kg/injection, schedule: Q01DX001 (ip), vehicle: saline
[15] = dose: 100.0 mg/kg/injection, schedule: Q01DX001 (ip), vehicle: saline
[16] = dose: 200.0 mg/kg/injection, schedule: Q01DX001 (ip), vehicle: saline
[17] = dose: 400.0 mg/kg/injection, schedule: Q01DX001 (ip), vehicle: saline

SMILES: O=[N+]([O-])/C=C\c1cccc(OCc2ccccc2)c1
- T/C [1]: 101 % of control
- T/C [2]: 103 % of control
- T/C [3]: 92 % of control
- T/C [4]: 97 % of control

SMILES: Cc1cc(CCCC(=O)O)c(C)s1
- T/C [5]: 101 % of control
- T/C [6]: 104 % of control
- T/C [7]: 101 % of control

SMILES: CCCCCCN(CCCCCC)C1=C(Cl)C(=O)c2ccccc2C1=O
- T/C (dose: 12.5 mg/kg/injection, schedule: Q01DX001 (ip), vehicle: carboxymethylcellulose (CMC)): 97 % of control
- T/C (dose: 25.0 mg/kg/injection, schedule: Q01DX001 (ip), vehicle: carboxymethylcellulose (CMC)): 103 % of control
- T/C [1]: 96 % of control

SMILES: OC1(c2ccccc2)CCN(Cc2ccccc2)CC1
- T/C (dose: 25.0 mg/kg/injection, schedule: Q01DX001 (ip), vehicle: Klucel (hydroxypropylcellulose) (HPC)): 106 % of control
- T/C (dose: 50.0 mg/kg/injection, schedule: Q01DX001 (ip), vehicle: Klucel (hydroxypropylcellulose) (HPC)): 118 % of control
- T/C [8]: 93 % of control and 107 % of control

SMILES: Cc1cc(C)nc(NCCCCC(N)C(=O)O)n1 (stereo unspecified)
- T/C (dose: 50.0 mg/kg/injection, schedule: Q04DX002 (ip), vehicle: saline): 104 % of control
- T/C (dose: 100.0 mg/kg/injection, schedule: Q04DX002 (ip), vehicle: saline): 104 % of control
- T/C (dose: 200.0 mg/kg/injection, schedule: Q04DX002 (ip), vehicle: saline): 101 % of control

SMILES: CN(C)P(=O)(N(C)C)N1CC1
- T/C (dose: 0.75 mg/kg/injection, schedule: Q01DX009 (ip), vehicle: saline): 98 % of control
- T/C (dose: 1.5 mg/kg/injection, schedule: Q01DX009 (ip), vehicle: saline): 103 % of control
- T/C (dose: 3.7 mg/kg/injection, schedule: Q01DX009 (ip), vehicle: saline): 101 % of control
- T/C (dose: 3.75 mg/kg/injection, schedule: Q01DX009 (ip), vehicle: saline): 98 % of control
- T/C (dose: 7.5 mg/kg/injection, schedule: Q01DX009 (ip), vehicle: saline): 113 % of control and 115 % of control
- T/C (dose: 15.0 mg/kg/injection, schedule: Q01DX009 (ip), vehicle: saline): 120 % of control
- T/C (dose: 30.0 mg/kg/injection, schedule: Q01DX001 (ip), vehicle: saline): 111 % of control
- T/C (dose: 30.0 mg/kg/injection, schedule: Q01DX009 (ip), vehicle: saline): 173 % of control

SMILES: CC[PH+]1c2ccccc2Oc2ccccc21.CC[PH+]1c2ccccc2Oc2ccccc21.[Br][Pd][Br]
- T/C (dose: 12.5 mg/kg/injection, schedule: Q04DX003 (ip), vehicle: saline with Tween-80): 98 % of control
- T/C (dose: 25.0 mg/kg/injection, schedule: Q04DX003 (ip), vehicle: saline with Tween-80): 98 % of control
- T/C (dose: 50.0 mg/kg/injection, schedule: Q04DX003 (ip), vehicle: saline with Tween-80): 98 % of control

SMILES: CC1(C)OC2OC(C3COC(=O)O3)C(O)C2O1 (stereo unspecified)
- T/C [8]: 114 % of control
- T/C [9]: 101 % of control
- T/C [10]: 96 % of control

SMILES: CC[Si](CC)(CC)C(C)Cl (stereo unspecified)
- T/C [11]: 101 % of control
- T/C [12]: 101 % of control
- T/C [13]: 98 % of control

SMILES: CCCCCCCSc1ccc(C(=O)O)cc1
- T/C (dose: 37.5 mg/kg/injection, schedule: Q01DX009 (ip), vehicle: saline): 91 % of control
- T/C (dose: 75.0 mg/kg/injection, schedule: Q01DX001 (ip), vehicle: acetone): 102 % of control
- T/C (dose: 75.0 mg/kg/injection, schedule: Q01DX009 (ip), vehicle: saline): 97 % of control
- T/C (dose: 75.0 mg/kg/injection, schedule: Q04DX003 (ip), vehicle: acetone): 102 % of control
- T/C (dose: 150.0 mg/kg/injection, schedule: Q01DX001 (ip), vehicle: acetone): 95 % of control
- T/C (dose: 150.0 mg/kg/injection, schedule: Q01DX009 (ip), vehicle: saline): 90 % of control
- T/C (dose: 150.0 mg/kg/injection, schedule: Q04DX003 (ip), vehicle: acetone): 102 % of control
- T/C (dose: 300.0 mg/kg/injection, schedule: Q01DX001 (ip), vehicle: acetone): 98 % of control
- T/C (dose: 300.0 mg/kg/injection, schedule: Q04DX003 (ip), vehicle: acetone): 102 % of control

SMILES: CN(C)/N=N/c1ncn(C2CCCO2)c1C(N)=O (stereo unspecified)
- T/C (dose: 200.0 mg/kg/injection, schedule: Q01DX005 (ip), vehicle: saline): 115 % of control

SMILES: O/N=C1\CC(c2ccccc2)(c2ccccc2)c2cc(-c3ccccc3)c(-c3ccccc3)cc21
- T/C (dose: 50.0 mg/kg/injection, schedule: Q01DX009 (ip), vehicle: saline with Tween-80): 97 % of control
- T/C (dose: 100.0 mg/kg/injection, schedule: Q01DX009 (ip), vehicle: saline with Tween-80): 104 % of control
- T/C (dose: 200.0 mg/kg/injection, schedule: Q01DX009 (ip), vehicle: saline with Tween-80): 97 % of control

SMILES: C[N+](C)(C)CC1CCCC1C[N+](C)(C)C (stereo unspecified)
- T/C (dose: 50.0 mg/kg/injection, schedule: Q04DX003 (ip), vehicle: saline): 110 % of control
- T/C (dose: 100.0 mg/kg/injection, schedule: Q04DX003 (ip), vehicle: saline): 96 % of control
- T/C (dose: 200.0 mg/kg/injection, schedule: Q04DX003 (ip), vehicle: saline): 102 % of control
- T/C (dose: 400.0 mg/kg/injection, schedule: Q04DX003 (ip), vehicle: saline): 90 % of control

SMILES: CCCCCN(CCCCC)CCCNc1c2c(nc3ccc(Cl)cc13)CCCC2
- T/C [14]: 96 % of control

SMILES: O=[N+]([O-])c1ccc(N/N=C(/Cc2ccccc2)c2ccc(Cl)cc2)c([N+](=O)[O-])c1
- T/C [15]: 107 % of control
- T/C [16]: 86 % of control
- T/C [17]: 98 % of control

SMILES: C[N+](C)(C)CC(O)CCl (stereo unspecified)
- T/C [15]: 95 % of control
- T/C [16]: 102 % of control

SMILES: c1cc2c(cc1NC1=NCCO1)CCC2
- T/C (dose: 6.25 mg/kg/injection, schedule: Q01DX009 (ip), vehicle: saline with Tween-80): 107 % of control
- T/C (dose: 12.5 mg/kg/injection, schedule: Q01DX009 (ip), vehicle: saline with Tween-80): 95 % of control
- T/C (dose: 25.0 mg/kg/injection, schedule: Q01DX009 (ip), vehicle: saline with Tween-80): 114 % of control

SMILES: O=C(O)CCNc1ccccc1C(=O)O
- T/C [2]: 100 % of control
- T/C [3]: 96 % of control
- T/C [4]: 100 % of control

SMILES: O=C1C(c2ccccc2)=C2c3ccccc3-c3ccccc3C2(O)C1c1ccccc1 (stereo unspecified)
- T/C [8]: 98 % of control
- T/C [9]: 103 % of control
- T/C [10]: 98 % of control

SMILES: OC(Cc1cc(CC(O)(C(F)(F)F)C(F)(F)F)n(-c2ccccc2)n1)(C(F)(F)F)C(F)(F)F
- T/C [5]: 97 % of control
- T/C [6]: 97 % of control
- T/C [7]: 95 % of control

SMILES: Nc1c(N)c2ccccc2c2ccccc12
- T/C [1]: 115 % of control
- T/C [2]: 110 % of control
- T/C [3]: 117 % of control
- T/C [4]: 110 % of control

SMILES: c1ccc(SC23CC4CC(CC(C4)C2)C3)nc1
- T/C (dose: 100.0 mg/kg/injection, schedule: Q01DX003 (ip), vehicle: Klucel (hydroxypropylcellulose) (HPC)): 100 % of control
- T/C [11]: 94 % of control
- T/C (dose: 200.0 mg/kg/injection, schedule: Q01DX003 (ip), vehicle: Klucel (hydroxypropylcellulose) (HPC)): 89 % of control
- T/C [12]: 91 % of control
- T/C (dose: 400.0 mg/kg/injection, schedule: Q01DX003 (ip), vehicle: Klucel (hydroxypropylcellulose) (HPC)): 94 % of control
- T/C [13]: 102 % of control

SMILES: OC(COC(c1ccccc1)(c1ccccc1)c1ccccc1)C(O)CC1SCCS1 (stereo unspecified)
- T/C [1]: 105 % of control
- T/C [2]: 105 % of control
- T/C [3]: 94 % of control
- T/C [4]: 100 % of control

SMILES: O=C(NN=c1c2ccccc2sc2ccccc12)c1cccc2ccccc12
- T/C [15]: 103 % of control
- T/C [16]: 105 % of control
- T/C [17]: 97 % of control

SMILES: COCCCN1CC2CCCC1O2 (stereo unspecified)
- T/C [14]: 91 % of control
- T/C [15]: 95 % of control
- T/C [16]: 97 % of control

SMILES: COc1c(NC(=O)Nc2ccc(SC)cc2)cccc1[N+](=O)[O-]
- T/C (dose: 100.0 mg/kg/injection, schedule: Q01DX009 (ip), vehicle: Klucel (hydroxypropylcellulose) (HPC)): 89 % of control
- T/C (dose: 200.0 mg/kg/injection, schedule: Q01DX009 (ip), vehicle: Klucel (hydroxypropylcellulose) (HPC)): 98 % of control
- T/C (dose: 400.0 mg/kg/injection, schedule: Q01DX009 (ip), vehicle: Klucel (hydroxypropylcellulose) (HPC)): 93 % of control
